In patent US11919901B2 (Syndax Pharmaceuticals, Inc., priority 2021, dated 2024):

Columns and labels:
[1] = molecular target: Menin-MLL (Homo sapiens (Human), UniProt O00255); assay: Determination of binding constants (Ki) to Menin-MLL (HTRF); settings: HTRF, 0.25 nM H-FL-Menin, 3.2 nM FITC-MLL-4-43, 24 hr incubation; for Ki: read-out: Menin-MLL Ki HTRF Assay: Ki
[2] = molecular target: hERG (Homo sapiens (Human), UniProt Q12809); assay: Patch clamp assay (hERG tail currents, whole-cell); format: cell-based; settings: hERG transfected HEK 293 cells; for hERG % Remaining 30 μM: 30 μM compound; for hERG % Remaining 10 μM: 10 μM compound; for hERG % Remaining 1 μM: 1 μM compound; for hERG % Remaining 3 μM: 3 μM compound; for hERG % Remaining 100 μM: 100 μM compound
Sequence of hERG (Q12809 whole entry): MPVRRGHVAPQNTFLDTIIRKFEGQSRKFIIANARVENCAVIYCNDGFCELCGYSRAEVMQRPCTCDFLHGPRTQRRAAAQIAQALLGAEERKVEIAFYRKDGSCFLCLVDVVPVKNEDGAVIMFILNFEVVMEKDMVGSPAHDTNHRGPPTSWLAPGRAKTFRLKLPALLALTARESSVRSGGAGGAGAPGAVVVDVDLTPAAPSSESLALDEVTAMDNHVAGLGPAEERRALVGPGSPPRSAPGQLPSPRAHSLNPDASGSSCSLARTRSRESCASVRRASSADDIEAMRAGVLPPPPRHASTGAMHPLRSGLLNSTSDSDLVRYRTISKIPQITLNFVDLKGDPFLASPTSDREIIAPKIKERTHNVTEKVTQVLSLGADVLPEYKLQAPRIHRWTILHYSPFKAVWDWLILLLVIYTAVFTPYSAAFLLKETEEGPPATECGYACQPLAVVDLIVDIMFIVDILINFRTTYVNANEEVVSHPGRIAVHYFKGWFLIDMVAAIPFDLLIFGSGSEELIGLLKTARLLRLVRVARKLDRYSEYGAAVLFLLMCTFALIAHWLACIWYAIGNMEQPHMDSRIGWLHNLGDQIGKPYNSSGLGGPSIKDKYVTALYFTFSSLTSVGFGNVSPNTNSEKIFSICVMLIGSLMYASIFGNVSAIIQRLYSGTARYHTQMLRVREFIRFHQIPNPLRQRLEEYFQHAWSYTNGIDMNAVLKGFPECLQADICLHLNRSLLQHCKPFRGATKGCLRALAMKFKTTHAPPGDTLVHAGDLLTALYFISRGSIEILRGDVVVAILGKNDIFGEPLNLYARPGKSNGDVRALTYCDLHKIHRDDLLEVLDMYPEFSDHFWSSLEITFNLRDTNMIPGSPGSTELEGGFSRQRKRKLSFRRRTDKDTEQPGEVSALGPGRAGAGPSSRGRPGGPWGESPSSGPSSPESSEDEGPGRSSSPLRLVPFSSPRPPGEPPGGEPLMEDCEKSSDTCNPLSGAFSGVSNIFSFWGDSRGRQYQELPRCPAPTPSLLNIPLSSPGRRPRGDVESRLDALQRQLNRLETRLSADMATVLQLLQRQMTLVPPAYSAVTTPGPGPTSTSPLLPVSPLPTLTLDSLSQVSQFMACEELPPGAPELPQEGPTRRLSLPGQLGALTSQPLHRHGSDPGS

Sequence of Menin-MLL (O00255 whole entry): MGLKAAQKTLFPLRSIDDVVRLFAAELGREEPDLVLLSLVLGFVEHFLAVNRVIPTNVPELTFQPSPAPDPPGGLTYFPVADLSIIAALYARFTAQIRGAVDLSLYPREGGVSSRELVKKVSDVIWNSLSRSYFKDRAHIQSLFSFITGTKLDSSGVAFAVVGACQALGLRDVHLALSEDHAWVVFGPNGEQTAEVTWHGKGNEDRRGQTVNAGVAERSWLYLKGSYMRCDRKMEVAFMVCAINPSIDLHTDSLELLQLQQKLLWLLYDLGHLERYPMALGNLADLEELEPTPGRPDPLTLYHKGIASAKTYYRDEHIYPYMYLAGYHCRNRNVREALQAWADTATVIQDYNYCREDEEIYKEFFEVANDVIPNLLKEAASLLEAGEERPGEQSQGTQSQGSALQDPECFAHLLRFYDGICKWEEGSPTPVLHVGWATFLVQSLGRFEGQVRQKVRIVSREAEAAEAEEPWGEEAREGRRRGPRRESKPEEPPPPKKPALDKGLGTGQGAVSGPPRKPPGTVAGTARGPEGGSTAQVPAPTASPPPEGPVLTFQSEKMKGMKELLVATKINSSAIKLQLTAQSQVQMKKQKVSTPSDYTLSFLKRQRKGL

| SMILES | Ki [1] | hERG % Remaining 30 μM [2] | IC50 [2] | EC50 [1] | hERG % Remaining 10 μM [2] | hERG % Remaining 1 μM [2] | hERG % Remaining 3 μM [2] | hERG % Remaining 100 μM [2] |
| --- | --- | --- | --- | --- | --- | --- | --- | --- |
| CCNS(=O)(=O)N[C@@H]1CC[C@@H](CN2CCC3(CC2)CN(c2ncnnc2Oc2ccc(F)cc2C(=O)N(CC(F)(F)F)C(C)C)C3)OC1 (single isomer, unassigned) [Compound 193] | < 1 nM | +++ (“+++” means ≥66%) | ≥ 50000 nM | – | – | – | – | – |
| CCN(C(=O)c1cc(F)ccc1Oc1cncnc1N1CC2(CCN(C[C@@H]3CC[C@@H](NS(C)(=O)=O)CO3)CC2)C1)C(C)C [Compound 1, N-ethyl-5-fluoro-N-isopropyl-2-((4-(7-(((2S,5R)-5-(methylsulfonamido)tetrahydro-2H-pyran-2-yl)methyl)-2,7-diazaspiro[3.5]nonan-2-yl)pyrimidin-5-yl)oxy)benzamide] | < 1 nM | ++ (“++” means ≥33% and <66%) | – | < 50 nM | +++ (“+++” means ≥66%) | – | – | – |
| CCN(C(=O)c1cc(F)ccc1Oc1cncnc1N1CC2(CCN(C[C@@H]3CC[C@@H](NS(=O)(=O)CC)CO3)CC2)C1)C(C)C [Compound 2, N-ethyl-2-((4-(7-(((2S,5R)-5-(ethylsulfonamido)tetrahydro-2H-pyran-2-yl)methyl)-2,7-diazaspiro[3.5]nonan-2-yl)pyrimidin-5-yl)oxy)-5-fluoro-N-isopropylbenzamide] | < 1 nM | +++ (“+++” means ≥66%) | – | < 50 nM | +++ (“+++” means ≥66%) | – | – | – |
| CCN(C(=O)c1cc(F)ccc1Oc1cncnc1N1CC2(CCN(C[C@@H]3CC[C@@H](NS(=O)(=O)C4CC4)CO3)CC2)C1)C(C)C [Compound 4, 2-((4-(7-(((2S,5R)-5-(cyclopropanesulfonamido)tetrahydro-2H-pyran-2-yl)methyl)-2,7-diazaspiro[3.5]nonan-2-yl)pyrimidin-5-yl)oxy)-N-ethyl-5-fluoro-N-isopropylbenzamide] | < 1 nM | +++ (“+++” means ≥66%) | ≥ 50000 nM | < 50 nM | +++ (“+++” means ≥66%) | – | – | – |
| CCN(C(=O)c1cc(F)ccc1Oc1cncnc1N1CC2(CCN(C[C@@H]3CC[C@@H](NS(=O)(=O)C4CCC4)CO3)CC2)C1)C(C)C [Compound 6, 2-((4-(7-(((2S,5R)-5-(cyclobutanesulfonamido)tetrahydro-2H-pyran-2-yl)methyl)-2,7-diazaspiro[3.5]nonan-2-yl)pyrimidin-5-yl)oxy)-N-ethyl-5-fluoro-N-isopropylbenzamide] | < 1 nM | ++ (“++” means ≥33% and <66%) | – | < 50 nM | +++ (“+++” means ≥66%) | – | – | – |
| CCN(C(=O)c1cc(F)ccc1Oc1cncnc1N1CC2(CCN(C[C@@H]3CC[C@@H](NC(=O)OC(C)(C)C)CO3)CC2)C1)C(C)C [Compound 11, tert-butyl ((3R,6S)-6-((2-(5-(2-(ethyl(isopropyl)carbamoyl)-4-fluorophenoxy)pyrimidin-4-yl)-2,7-diazaspiro[3.5]nonan-7-yl)methyl)tetrahydro-2H-pyran-3-yl)carbamate] | < 1 nM | + (“+” means <33%) | – | < 50 nM | + (“+” means <33%) | – | – | – |
| CC(C)N(C(=O)c1cc(F)ccc1Oc1cncnc1N1CC2(CCN(C[C@@H]3CC[C@@H](NS(C)(=O)=O)CO3)CC2)C1)C(C)C [Compound 12, 5-fluoro-N,N-diisopropyl-2-((4-(7-(((2S,5R)-5-(methylsulfonamido)tetrahydro-2H-pyran-2-yl)methyl)-2,7-diazaspiro[3.5]nonan-2-yl)pyrimidin-5-yl)oxy)benzamide] | < 1 nM | +++ (“+++” means ≥66%) | ≥ 50000 nM | < 50 nM | +++ (“+++” means ≥66%) | +++ (“+++” means ≥66%) | +++ (“+++” means ≥66%) | ++ (“++” means ≥33% and <66%) |
| CCS(=O)(=O)N[C@@H]1CC[C@@H](CN2CCC3(CC2)CN(c2ncncc2Oc2ccc(F)cc2C(=O)N(C(C)C)C(C)C)C3)OC1 [Compound 13, 2-((4-(7-(((2S,5R)-5-(ethylsulfonamido)tetrahydro-2H-pyran-2-yl)methyl)-2,7-diazaspiro[3.5]nonan-2-yl)pyrimidin-5-yl)oxy)-5-fluoro-N,N-diisopropylbenzamide] | < 1 nM | ++ (“++” means ≥33% and <66%) | ≥ 50000 nM | < 50 nM | +++ (“+++” means ≥66%) | +++ (“+++” means ≥66%) | +++ (“+++” means ≥66%) | ++ (“++” means ≥33% and <66%) |
| CC(C)N(C(=O)c1cc(F)ccc1Oc1cncnc1N1CC2(CCN(C[C@@H]3CC[C@@H](NS(=O)(=O)C(C)C)CO3)CC2)C1)C(C)C [Compound 14, 5-fluoro-N,N-diisopropyl-2-((4-(7-(((2S,5R)-5-((1-methylethyl)sulfonamido)tetrahydro-2H-pyran-2-yl)methyl)-2,7-diazaspiro[3.5]nonan-2-yl)pyrimidin-5-yl)oxy)benzamide] | < 1 nM | ++ (“++” means ≥33% and <66%) | 25000 to 50000 nM | < 50 nM | +++ (“+++” means ≥66%) | – | +++ (“+++” means ≥66%) | + (“+” means <33%) |
| CC(C)N(C(=O)c1cc(F)ccc1Oc1cncnc1N1CC2(CCN(C[C@@H]3CC[C@@H](NS(=O)(=O)C4CC4)CO3)CC2)C1)C(C)C [Compound 15, 2-((4-(7-(((2S,5R)-5-(cyclopropanesulfonamido)tetrahydro-2H-pyran-2-yl)methyl)-2,7-diazaspiro[3.5]nonan-2-yl)pyrimidin-5-yl)oxy)-5-fluoro-N,N-diisopropylbenzamide] | < 1 nM | ++ (“++” means ≥33% and <66%) | 25000 to 50000 nM | < 50 nM | +++ (“+++” means ≥66%) | – | +++ (“+++” means ≥66%) | + (“+” means <33%) |
| CC(C)N(C(=O)c1cc(F)ccc1Oc1cncnc1N1CC2(CCN(C[C@@H]3CC[C@@H](NS(=O)(=O)C4COC4)CO3)CC2)C1)C(C)C [Compound 16, 5-fluoro-N,N-diisopropyl-2-((4-(7-(((2S,5R)-5-(oxetane-3-sulfonamido)tetrahydro-2H-pyran-2-yl)methyl)-2,7-diazaspiro[3.5]nonan-2-yl)pyrimidin-5-yl)oxy)benzamide] | < 1 nM | +++ (“+++” means ≥66%) | – | < 50 nM | +++ (“+++” means ≥66%) | – | – | – |
| CCS(=O)(=O)N[C@@H]1CC[C@@H](CN2CCC3(CC2)CN(c2ncncc2Oc2ccc(F)cc2C(=O)N(C(C)C)C2CC2)C3)OC1 [Compound 19, N-cyclopropyl-2-((4-(7-(((2S,5R)-5-(ethylsulfonamido)tetrahydro-2H-pyran-2-yl)methyl)-2,7-diazaspiro[3.5]nonan-2-yl)pyrimidin-5-yl)oxy)-5-fluoro-N-isopropylbenzamide] | < 1 nM | ++ (“++” means ≥33% and <66%) | – | < 50 nM | +++ (“+++” means ≥66%) | – | – | – |
| CC(C)N(C(=O)c1cc(F)ccc1Oc1cncnc1N1CC2(CCN(C[C@@H]3CC[C@@H](NS(=O)(=O)C4CC4)CO3)CC2)C1)C1CC1 [Compound 21, 2-((4-(7-(((2S,5R)-5-(cyclopropanesulfonamido)tetrahydro-2H-pyran-2-yl)methyl)-2,7-diazaspiro[3.5]nonan-2-yl)pyrimidin-5-yl)oxy)-N-cyclopropyl-5-fluoro-N-isopropylbenzamide] | < 1 nM | + (“+” means <33%) | – | < 50 nM | ++ (“++” means ≥33% and <66%) | – | – | – |
| CCS(=O)(=O)N[C@@H]1CC[C@@H](CN2CCC3(CC2)CN(c2ncncc2Oc2ccc(F)cc2C(=O)N(C(C)C)[C@H]2CCOC2)C3)OC1 [Compound 33, 2-((4-(7-(((2S,5R)-5-(ethylsulfonamido)tetrahydro-2H-pyran-2-yl)methyl)-2,7-diazaspiro[3.5]nonan-2-yl)pyrimidin-5-yl)oxy)-5-fluoro-N-isopropyl-N-((S)-tetrahydrofuran-3-yl)benzamide] | < 1 nM | +++ (“+++” means ≥66%) | – | < 50 nM | +++ (“+++” means ≥66%) | – | – | – |
| CCS(=O)(=O)N[C@@H]1CC[C@@H](CN2CCC3(CC2)CN(c2ncncc2Oc2ccc(F)cc2C(=O)N(C(C)C)C2CC(F)C2)C3)OC1 (stereo partly drawn) [Compound 244, 2-((4-(7-(((2S,5R)-5-(ethylsulfonamido)tetrahydro-2H-pyran-2-yl)methyl)-2,7-diazaspiro[3.5]nonan-2-yl)pyrimidin-5-yl)oxy)-5-fluoro-N-((1s,3s)-3-fluorocyclobutyl)-N-isopropylbenzamide] | – | ++ (“++” means ≥33% and <66%) | – | – | +++ (“+++” means ≥66%) | – | – | – |
| CCN(C(=O)c1cc(F)ccc1Oc1cncnc1N1CC2(CCN(C[C@H]3CC[C@H](NS(=O)(=O)CC)CC3)CC2)C1)C(C)C [SNDX-5613] | – | ++ (“++” means ≥33% and <66%) | < 25000 nM | – | ++ (“++” means ≥33% and <66%) | +++ (“+++” means ≥66%) | +++ (“+++” means ≥66%) | + (“+” means <33%) |
